Test results: US6803372B2, “Spiro compounds” (Banyu Pharmaceutical Co., Ltd., priority 1999, dated 2004)

Experiments:
human NPY Y5 receptor = target: T1, human NPY Y5 receptor (Homo sapiens, UniProt Q15761); experiment: NPY binding inhibition test (Pharmacological Test 1); conditions: [125I]peptideYY, membrane sample from cells expressing NPY Y5 receptor, 25° C., 2 hours; read-out: IC50 of the test compound against specific peptideYY binding
T1 construct: expressed in transfected cells; host or cells: COS-7, CHO and LM(tk-)
T1 sequence (Q15761 1-445): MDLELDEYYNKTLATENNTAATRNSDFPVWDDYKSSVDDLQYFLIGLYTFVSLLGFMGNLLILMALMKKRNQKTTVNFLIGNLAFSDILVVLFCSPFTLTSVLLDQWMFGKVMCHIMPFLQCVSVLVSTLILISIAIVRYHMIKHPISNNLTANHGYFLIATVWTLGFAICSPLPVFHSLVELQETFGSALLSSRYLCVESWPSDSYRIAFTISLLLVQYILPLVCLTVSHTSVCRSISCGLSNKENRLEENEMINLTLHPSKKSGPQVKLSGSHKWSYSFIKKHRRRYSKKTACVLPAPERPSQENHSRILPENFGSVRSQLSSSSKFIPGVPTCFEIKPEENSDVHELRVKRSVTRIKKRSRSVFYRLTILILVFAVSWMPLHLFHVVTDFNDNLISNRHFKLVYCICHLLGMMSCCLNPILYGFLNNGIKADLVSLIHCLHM
Excerpt: Pharmacological Test 1 (NPY Binding Inhibition Test)
cDNA sequence encoding human NPY Y5 receptor [International patent publication number WO96/16542] was cloned into expression vectors pcDNA3, pRc/RSV (made by Invitrogen Inc.) and pCI-neo (made by Promega Inc.). This obtained expression vectors were transfected to host cells COS-7, CHO and LM(tk-) (American Type Culture Collection) by cationic lipid method [Proceedings of the National Academy of Sciences of the United States of America, 84: 7413(1987)] to give NPY Y5 receptor expression cells.
A membrane sample prepared from the cells which expressed NPY Y5 receptor was incubated together with a test compound and [^125I]peptideYY (NEN) (20,000 cpm) in an assay buffer (25 mM Tris buffer, pH7.4, containing 10 mM magnesium chloride, 1 mM phenylmethylsulfonyl fluoride, 0.1% bacitracin and 0.5% bovine serum albumin) at 25° C. for 2 hours, then filtered through a glass filter GF/C and washed with 5 mM Tris buffer (pH7.4) containing 0.3% BSA. The radioactivity of the cake on the glass filter was measured. Nonspecific binding was measured in the presence of 1 μM peptideYY and a 50% Inhibitory Concentration (IC50) of the test compound against specific peptideYY binding was determined [Endocrinology, 131: 2090(1992)].

[1] = Isolation of metabolites of compound of example 101; conditions: parent: compound of example 101

Structure (SMILES)	IC50 (human NPY Y5 receptor) [nM]	isolated as metabolite [1]	melting point [°C]
O=C1OC2(CCC(C(=O)Nc3ccn(-c4ccccc4F)n3)CC2)c2c[n+]([O-])ccc21 (stereo not drawn) [Example 107, trans-N-[1-(2-fluorophenyl)-3-pyrazolyl]-3-oxospiro[6-azaisobenzofuran-1(3H),1′-cyclohexane]-4′-carboxamide 6-oxide]	4.6	isolated as metabolites of compound of example 101	
O=C1OC2(CCN(C(=O)Nc3ccc4ncc(C(F)(F)F)cc4n3)CC2)c2ccccc21 [Example 26, 3-Oxo-N-(7-trifluoromethylpyrido[3,2-b]pyridin-2-yl)-spiro[isobenzofuran-1(3H),4′-piperidine]-1′-carboxamide]	2.5		246 to 248
O=C1Cc2ccccc2C2(CCN(C(=O)Nc3cn(-c4ccc5ccccc5n4)cn3)CC2)N1 [Example 9, 3,4-Dihydro-3-oxo-N-[1-(2-quinolyl)-4-imidazolyl]spiro[isoquinoline-1(2H),4′-piperidine]-1′-carboxamide]	0.72		264 to 266
O=C1OC2(CCC(C(=O)Nc3cn(-c4cnc5ccccc5c4)cn3)CC2)c2ccccc21 (stereo not drawn) [Example 55, Trans-3′-oxo-N-[1-(3-quinolyl)-4-imidazolyl]spiro[cyclohexane-1,1′(3′H)-isobenzofuran]-4-carboxamide]	0.59		> 300
O=C1OC2(CCC(O)(C(=O)Nc3ccn(-c4ccccc4F)n3)CC2)c2cnccc21 (stereo not drawn) [Example 109, cis-N-[1-(2-fluorophenyl)-3-pyrazolyl]-4′-hydroxy-3-oxospiro[6-azaisobenzofuran-1(3H),1′-cyclohexane]-4′-carboxamide]		isolated as metabolites of compound of example 101	
O=C1OC2(CCC(C(=O)Nc3ccn(-c4ccc(O)cc4F)n3)CC2)c2cnccc21 (stereo not drawn) [Example 108, trans-N-[1-(2-fluoro-4-hydroxyphenyl)-3-pyrazolyl]-3-oxospiro[6-azaisobenzofuran-1(3H),1′-cyclohexane]-4′-carboxamide]	3	isolated as metabolites of compound of example 101	
